According to patent US11576875B2 (priority 2017, dated 2023):
Entries after “also recorded” stand apart in the source; their conditions may differ.

Experiments:
[1] = tested on: animal model with high-fat-diet-induced muscle loss; experiment: Grip test in mice fed a high-fat diet; type: in vivo, C57BL/6N mice; details: 0.2% ethyl vanillin in high-fat diet, week 10
Experimental: A normal diet group (Chow) was fed commercial rodent chow. Ethyl vanillin was purchased from Sigma-Aldrich. [table] To measure the grip strength of mice, grip strength was measured using four feet of the mice at week 10 of breeding. A force (N) for mice to hold a wire mesh was measured a total of five times using a grip strength measurer equipped with a wire mesh (20×10 cm) (Daejong Instrument Industry Co., Ltd., Korea), and a rest period of 1 minute or longer was given between measurements. Experimental results were obtained by dividing the measured force (N) by body weight (kg). The statistical analysis of all data was performed using the Statistical Package for the Social Sciences (SPSS version 21.0, IBM, Armonk, N.Y., USA), and analysis values were expressed as mean±SEM, and a significant difference between groups was verified by ANOVA.

p-4E-BP1 protein = experiment: Protein expression level by Western blotting in myotubes; type: cell-based, mouse; details: ethyl vanillin with dexamethasone vs dexamethasone control
Experimental: (§1) After completing the incubation of all experimental groups and the control, the media were removed and a lysis buffer was added to each well to lyse the cells. As the lysis buffer, a 100 mM Tris-HCl buffer solution (pH 7.4) containing 5 mM EDTA, 50 mM sodium pyrophosphate, 50 mM NaF, 100 mM orthovanadate, 1% Triton X-100, 1 mM phenylmethanesulfonyl fluoride (PMSF), […] of aprotinin, 1 μg/mL of pepstatin A, and 1 μg/mL of leupeptin was used. After lysing the cells, the lysates were obtained, and then centrifuged at 1,300×g and 4° C. for 20 minutes, and then the middle layer was taken as a protein layer in the cell extract. For the protein layer, the concentrations of proteins were quantified by the Bradford method. 40 μg of the quantified proteins were electrophoresed by SDS-PAGE, and then the separated proteins were transferred to nitrocellulose membranes (Amersham, Buckinghamshire, UK). Then, the membranes were washed three times for 10 minutes using a Tris-buffered saline and Tween 20 solution (TBS-T), followed by blocking using 10% skim milk for 60 minutes. […] Bands visualized on the X-ray film were scanned and quantified using Quantity One analysis software (Bio-Rad).

p-p70S6K1 protein = experiment: as above; type: cell-based, mouse; details: ethyl vanillin with dexamethasone vs dexamethasone control
Experimental: as §1

[2] = cited from earlier work
[3] = tested on: mouse myoblast cell line (C2C12 cells); experiment: Thickness of myotubes differentiated from mouse myoblasts, muscle reduction induced by dexamethasone; type: cell-based
Experimental: First, differentiation of myotubes from mouse myoblasts was induced. A mouse myoblast cell line (C2C12 cells) was purchased from ATCC (Manassas, Va., USA) and used. The purchased cells were inoculated in 10% fetal bovine serum media (Gibco-BRL) and incubated in a 5% CO2 incubator at 37° C. When the confluency of the cells attached to the media became 80% or higher, the cells were transferred to 2% horse serum media (Gibco-BRL) to differentiate myoblasts into myotubes.
For two days (48 hours) from day 4 after differentiation into myotubes started to be induced, the media were treated with 50 μM dexamethasone (dexa; Sigma Aldrich, USA) to induce muscle reduction. […] As a non-treated control, cells treated with only dexamethasone and not treated with ethyl vanillin were used.
After completion of the incubation, the cells were washed twice with phosphate buffered saline (PBS), and then fixed by treatment with 100% methanol for 10 minutes. […]
The stained myotubes were photographed using a fluorescence microscope (IX 71, Olympus) at a magnification of 10×, and then analyzed using image J software (USA). Six sections were randomly selected from each well and micrographed, and the thickness of at least 100 myotubes from each well was analyzed (three repetitions/group).

Myostatin = experiment: mRNA expression level by RT-PCR in myotubes; type: cell-based, mouse; details: ethyl vanillin with dexamethasone vs dexamethasone control
Experimental: (§2) After completing the incubation of all experimental groups and the control, cells of each group were obtained, 334 μl of a TRIzol solution per 1×10^7 myotubes was added and replaced, followed by centrifugation at 12,000×g and 4° C. for 10 minutes. Thereafter, the supernatant was transferred to a new tube and 67 μl of chloroform was added thereto, followed by mixing by vortexing. The supernatant in the mixed solution was transferred again to a new tube, and isopropanol was added thereto in a ratio of 1:1 (v:v) of isopropanol to supernatant, followed by vigorous shaking about 10 times and being left at room temperature for 15 minutes. Once again, centrifugation was carried out at 12,000×g and 4° C. for 10 minutes to remove a supernatant, and 1 ml of 70% ethanol was added to the precipitate, followed by centrifugation at 7,500×g and 4° C. for 5 minutes to remove the ethanol, and the tubes were dried at room temperature for 15 minutes. Finally, precipitated RNA was dissolved in nuclease free water to obtain RNA extracted from the cells. The concentration of RNA was identified by measuring absorbance at wavelengths of 260 nm and 280 nm using a UV/VIS spectrometer, and was subjected to electrophoresis to confirm the integrity of RNA samples.
(§3) Reverse transcription-polymerase chain reaction (RT-PCR) was performed using the prepared RNA samples. The obtained RNA samples were used as templates and reverse transcription was performed using oligo dT primers and SuperScript Reverse Transcriptase (GIBCO BRL, Gaithersburg, Md., USA) to synthesize cDNA. The synthesized cDNA was used as a template and PCR was performed using primer pairs (forward primers and reverse primers) shown in Table 1 below. Each primer was constructed based on the 5′ and 3′ flanking sequence of cDNA of the template gene to be amplified. After PCR was completed, 1 μl of each amplified PCR product was subjected to electrophoresis on agarose gel to confirm generated DNA bands.

MaFbx/atrogin 1 = experiment: mRNA expression level by RT-PCR in myotubes; type: cell-based, mouse; details: ethyl vanillin with dexamethasone vs dexamethasone control
Experimental: as §2, §3

MuRF1 = experiment: mRNA expression level by RT-PCR in myotubes; type: cell-based, mouse; details: ethyl vanillin with dexamethasone vs dexamethasone control
Experimental: as §2, §3

[4] = tested on: animal model with high-fat-diet-induced muscle loss; experiment: Four limb hanging test in mice fed a high-fat diet; type: in vivo, C57BL/6N mice; details: 0.2% ethyl vanillin in high-fat diet, week 10
Experimental: A normal diet group (Chow) was fed commercial rodent chow. Ethyl vanillin was purchased from Sigma-Aldrich. [table] To measure the limb muscle strength of mice, the time that the mice hung upside down using their four feet was measured at week 10 of breeding. The time (seconds) that the mice hung upside down in a cage equipped with a wire mesh cover (diameter<0.5 cm) (20×30×50 cm, Jeung-Do Bio & Plant Co., Ltd, Korea) was measured a total of three times, and a rest period of 30 minutes or longer was given between measurements. Experimental results were obtained by multiplying hanging time (sec) by body weight (kg). The statistical analysis of all data was performed using the Statistical Package for the Social Sciences (SPSS version 21.0, IBM, Armonk, N.Y., USA), and analysis values were expressed as mean±SEM, and a significant difference between groups was verified by ANOVA.

[5] = tested on: animal model with high-fat-diet-induced muscle loss; experiment: Fiber diameter of tibialis anterior muscle tissue (H&E staining); type: in vivo, C57BL/6N mice; details: 0.2% ethyl vanillin in high-fat diet, 10 weeks
Experimental: A normal diet group (Chow) was fed commercial rodent chow. Ethyl vanillin was purchased from Sigma-Aldrich. [table] Muscle tissues of mice were extracted, fixed in 10% formalin, and then stained with hematoxylin and eosin (H&E) after requesting Korea CFC (Gyeonggi-do, Korea) to do so, and observed using an optical microscope (IX71, Olympus, JPN) and photographed using a digital camera (DP71, Olympus, JPN). The statistical analysis of all data was performed using the Statistical Package for the Social Sciences (SPSS version 21.0, IBM, Armonk, N.Y., USA), and analysis values were expressed as mean±SEM, and a significant difference between groups was verified by ANOVA.

CCOc1cc(C=O)ccc1O [ethyl vanillin, 3-ethoxy-4-hydroxybenzaldehyde]
increase in grip strength (force/body weight) vs high-fat diet [1]: 27% | amount of p-4E-BP1 protein (p-4E-BP1 protein): significantly increases | amount of p-p70S6K1 protein (p-p70S6K1 protein): significantly increases | solubility in chloroform ([2]; chloroform): soluble | solubility in ethanol ([2]; ethanol): soluble | solubility in water ([2]; water): insoluble | increase in thickness of myotubes compared to reduction caused by dexamethasone ([3]; 100 μM ethyl vanillin along with 50 μM dexamethasone, 48 hours, C2C12 myotubes): 49% | number of myotubes of mouse myoblasts reduced by dexamethasone ([3]; treated with ethyl vanillin, vs dexamethasone): significantly increased | expression of Myostatin (mRNA) (Myostatin): significantly reducing | expression of MaFbx/atrogin 1 (mRNA) (MaFbx/atrogin 1): significantly reducing; also recorded: significantly reduces | expression of MuRF1 (mRNA) (MuRF1): significantly reducing; also recorded: significantly reduces | increase in holding impulse (hanging time x body weight) vs high-fat diet [4]: 147% | increase in fiber diameter of the tibialis anterior vs high-fat diet [5]: 57%
